Measurements published in ChEMBL document CHEMBL4680139, “Antiproliferative activity of diarylnaphthylpyrrolidine derivative via dual target inhibition” (Eur J Med Chem, 2020).

Legend:
[1] = Toxicity in Swiss albino mouse assessed as SGOT level in serum at 5 mg/kg, po administered as single dose (reference value: 22.12 +/-1.91 U/L); assay type: organism-based; settings: in vivo
[2] = Toxicity in Swiss albino mouse assessed as SGPT level in serum at 5 mg/kg, po administered as single dose (reference value: 21.81 +/-2.1 U/L); assay type: organism-based; settings: in vivo
[3] = Toxicity in Swiss albino mouse assessed as mortality upto 300 mg/kg, po administered as single dose; assay type: organism-based; settings: in vivo
[4] = Toxicity in Swiss albino mouse assessed as haemoglobin level in blood at 50 mg/kg, po administered as single dose (reference value: 12.05 +/-0.88 gm/dl); assay type: organism-based; settings: in vivo
[5] = Toxicity in Swiss albino mouse assessed as albumin level in serum at 300 mg/kg, po administered as single dose (reference value: 0.56 +/-0.02 g/dl); assay type: organism-based; settings: in vivo
MCF7 [6] = assay: Induction of cell cycle arrest in human MCF-7 cells assessed as accumulation at G0/G1 phase at 8.66 uM by propidium iodide staining based flow cytometry (reference value: 74.5%); assay type: functional
MDA-MB-231 [7] = assay: Induction of apoptosis in human MDA-MB-231 cells at 5.21 uM by propidium iodide staining based flow cytometry (reference value: 2.6 +/- 0.28%); assay type: functional
MDA-MB-231 [8] = assay: Induction of apoptosis in human MDA-MB-231 cells assessed as proportion of late apoptotic cells at 5.21 uM measured after 24 hrs by Annexin V-FITC/propidium iodide staining based flow cytometry (reference value: 0.5%); assay type: functional
[9] = Toxicity in Swiss albino mouse assessed as absolute and relative brain weight at 5 to 300 mg/kg, po administered as single dose; assay type: organism-based; settings: in vivo, dose 5-300 mg/kg
MCF7 [10] = assay: Antiproliferative activity against human MCF-7 cells assessed as proportion of live cells at 25 ug/ml measured after 3 weeks by crystal violet staining based soft agar colony formation assay (reference value: 100%); assay type: functional; settings: dose 25 µg/ml
[11] = Toxicity in Swiss albino mouse assessed as ALP level in serum at 300 mg/kg, po administered as single dose (reference value: 195.8 +/-12.06 U/L); assay type: organism-based; settings: in vivo
MDA-MB-231 [12] = assay: Induction of apoptosis in human MDA-MB-231 cells assessed as proportion of early apoptotic cells at 2.6 uM measured after 24 hrs by Annexin V-FITC/propidium iodide staining based flow cytometry (reference value: 0.2%); assay type: functional
[13] = Toxicity in Swiss albino mouse assessed as morbidity upto 300 mg/kg, po administered as single dose; assay type: organism-based; settings: in vivo
MCF7 [14] = assay: Antiproliferative activity against human MCF-7 cells assessed as proportion of dead cells at 12.5 ug/ml measured after 3 weeks by crystal violet staining based soft agar colony formation assay; assay type: functional; settings: dose 12.5 µg/ml
MDA-MB-231 [15] = assay: Induction of apoptosis in human MDA-MB-231 cells assessed as proportion of necrotic cells at 10.42 uM measured after 24 hrs by Annexin V-FITC/propidium iodide staining based flow cytometry (reference value: 0.2%); assay type: functional
[16] = Toxicity in Swiss albino mouse assessed as cholesterol level in serum at 300 mg/kg, po administered as single dose (reference value: 103.62 +/-7.45 mg/dl); assay type: organism-based; settings: in vivo
MCF7 [17] = assay: Induction of apoptosis in human MCF-7 cells assessed as proportion of necrotic cells at 2.17 uM measured after 24 hrs by Annexin V- FITC/propidium iodide staining based flow cytometry (reference value: 5.3%); assay type: functional
[18] = Toxicity in Swiss albino mouse assessed as absolute and relative spleen weight at 5 to 300 mg/kg, po administered as single dose; assay type: organism-based; settings: in vivo, dose 5-300 mg/kg
MDA-MB-231 [19] = assay: Induction of apoptosis in human MDA-MB-231 cells assessed as proportion of early apoptotic cells at 10.42 uM measured after 24 hrs by Annexin V-FITC/propidium iodide staining based flow cytometry (reference value: 0.2%); assay type: functional
MCF7 [20] = assay: Induction of cell cycle arrest in human MCF-7 cells assessed as accumulation at G2/M phase at 2.17 uM by propidium iodide staining based flow cytometry (reference value: 15.2%); assay type: functional
[21] = Toxicity in Swiss albino mouse assessed as SGPT level in serum at 300 mg/kg, po administered as single dose (reference value: 21.81 +/-2.1 U/L); assay type: organism-based; settings: in vivo
MCF7 [22] = assay: Induction of cell cycle arrest in human MCF-7 cells assessed as accumulation at S phase at 8.66 uM by propidium iodide staining based flow cytometry (reference value: 6.9%); assay type: functional
[23] = Toxicity in Swiss albino mouse assessed as serum protein level at 50 mg/kg, po administered as single dose (reference value: 2.83 +/-0.09 mg/ml); assay type: organism-based; settings: in vivo
[24] = target: DNA topoisomerase 2-alpha (Homo sapiens) (UniProt P11388); assay: Inhibition of DNA-topoisomerase 2 in human MCF7 cells using kinetoplast DNA as substrate at 4.33 uM measured by ELISA; assay type: cell-based
[25] = Toxicity in Swiss albino mouse assessed as ALP level in serum at 5 mg/kg, po administered as single dose (reference value: 195.8 +/-12.06 U/L); assay type: organism-based; settings: in vivo
[26] = Toxicity in Swiss albino mouse assessed as triglyceride level in serum at 300 mg/kg, po administered as single dose (reference value: 78.34 +/-2.99 mg/dl); assay type: organism-based; settings: in vivo
[27] = Toxicity in Swiss albino mouse assessed as RBC level in blood at 50 mg/kg, po administered as single dose (reference value: 10.56 +/- 1.22x10^6/mm3); assay type: organism-based; settings: in vivo
MDA-MB-231 [28] = assay: Antiproliferative activity against human MDA-MB-231 cells assessed as inhibition of cell growth measured after 48 hrs by SRB assay; assay type: functional, cell-based; settings: MDA-MB-231, 48 h, read-out: IC50
[29] = Toxicity in Swiss albino mouse assessed as WBC level in blood at 5 mg/kg, po administered as single dose (reference value: 17.06 +/- 1.33x10^3/mm3); assay type: organism-based; settings: in vivo
MCF7 [30] = assay: Induction of apoptosis in human MCF-7 cells assessed as proportion of late apoptotic cells at 4.33 uM measured after 24 hrs by Annexin V- FITC/propidium iodide staining based flow cytometry (reference value: 0.1%); assay type: functional
MDA-MB-231 [31] = assay: Induction of apoptosis in human MDA-MB-231 cells at 10.42 uM by propidium iodide staining based flow cytometry (reference value: 2.6 +/- 0.28%); assay type: functional
[32] = Toxicity in Swiss albino mouse assessed as albumin level in serum at 50 mg/kg, po administered as single dose (reference value: 0.56 +/-0.02 g/dl); assay type: organism-based; settings: in vivo
MCF7 [33] = assay: Induction of apoptosis in human MCF-7 cells at 8.66 uM by propidium iodide staining based flow cytometry (reference value: 2.1%); assay type: functional
MCF7 [34] = assay: Induction of cell cycle arrest in human MCF-7 cells assessed as accumulation at G2/M phase at 4.33 uM by propidium iodide staining based flow cytometry (reference value: 15.2%); assay type: functional
MDA-MB-231 [35] = assay: Induction of cell cycle arrest in human MDA-MB-231 cells assessed as accumulation at G0/G1 phase at 2.6 uM by propidium iodide staining based flow cytometry (reference value: 77.7 +/- 0.28%); assay type: functional

DNA topoisomerase 2-alpha (Homo sapiens), sequence (P11388 whole entry): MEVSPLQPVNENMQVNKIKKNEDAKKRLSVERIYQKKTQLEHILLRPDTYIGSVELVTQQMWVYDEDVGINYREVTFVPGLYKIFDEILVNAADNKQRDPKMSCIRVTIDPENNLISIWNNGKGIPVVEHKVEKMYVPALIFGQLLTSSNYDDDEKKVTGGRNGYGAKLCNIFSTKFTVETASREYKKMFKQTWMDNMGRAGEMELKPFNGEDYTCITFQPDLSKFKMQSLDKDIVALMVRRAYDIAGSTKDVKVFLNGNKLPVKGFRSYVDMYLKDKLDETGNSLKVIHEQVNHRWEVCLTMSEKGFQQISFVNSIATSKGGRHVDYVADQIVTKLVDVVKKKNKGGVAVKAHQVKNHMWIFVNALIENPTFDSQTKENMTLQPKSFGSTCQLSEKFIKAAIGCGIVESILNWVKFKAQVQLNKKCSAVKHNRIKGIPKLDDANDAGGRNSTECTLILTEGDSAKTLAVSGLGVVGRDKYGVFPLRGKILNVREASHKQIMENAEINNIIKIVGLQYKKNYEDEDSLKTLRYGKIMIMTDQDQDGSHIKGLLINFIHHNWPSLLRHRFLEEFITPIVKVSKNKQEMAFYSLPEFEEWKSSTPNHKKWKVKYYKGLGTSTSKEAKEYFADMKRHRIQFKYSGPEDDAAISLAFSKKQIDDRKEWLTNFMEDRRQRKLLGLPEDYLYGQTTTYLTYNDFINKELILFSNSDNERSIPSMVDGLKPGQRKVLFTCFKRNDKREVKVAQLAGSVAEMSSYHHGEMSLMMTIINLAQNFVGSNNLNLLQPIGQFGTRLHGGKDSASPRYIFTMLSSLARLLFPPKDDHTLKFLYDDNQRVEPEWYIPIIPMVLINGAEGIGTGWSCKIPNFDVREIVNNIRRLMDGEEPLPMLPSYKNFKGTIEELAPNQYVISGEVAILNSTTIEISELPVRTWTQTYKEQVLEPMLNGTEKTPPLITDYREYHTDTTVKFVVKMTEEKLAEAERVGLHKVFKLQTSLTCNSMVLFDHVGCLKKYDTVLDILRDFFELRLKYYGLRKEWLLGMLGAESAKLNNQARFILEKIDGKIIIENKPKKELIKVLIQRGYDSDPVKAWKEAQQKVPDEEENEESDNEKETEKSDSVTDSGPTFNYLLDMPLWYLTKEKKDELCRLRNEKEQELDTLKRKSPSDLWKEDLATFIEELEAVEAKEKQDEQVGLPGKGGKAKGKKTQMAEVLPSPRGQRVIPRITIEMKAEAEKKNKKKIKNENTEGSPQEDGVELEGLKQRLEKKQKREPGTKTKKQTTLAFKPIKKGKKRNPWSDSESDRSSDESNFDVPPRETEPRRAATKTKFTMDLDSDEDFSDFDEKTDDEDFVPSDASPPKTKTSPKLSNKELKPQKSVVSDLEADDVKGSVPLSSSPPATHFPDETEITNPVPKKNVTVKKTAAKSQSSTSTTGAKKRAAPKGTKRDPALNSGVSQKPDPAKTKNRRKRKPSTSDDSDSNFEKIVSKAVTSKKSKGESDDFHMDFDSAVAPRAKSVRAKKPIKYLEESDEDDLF

## COc1ccc(C(c2ccccc2OCCN2CCCC2)c2cccc3ccccc23)c(OC)c1OC (stereo not given)
[1]
  Activity: 27.32 U/L
[2]
  Activity: 21.18 U/L
[3]
  Activity: Non-Toxic
[4]
  Activity: 9.96 g/dL
[5]
  Activity: 0.54 g/dL
MCF7 [6]
  Activity: 66.5%
MDA-MB-231 [7]
  Activity: 2.8%
MDA-MB-231 [8]
  Activity: 3.5%
[9]
  Activity: Non-Toxic
MCF7 [10]
  Activity: 20.64%
[11]
  Activity: 137.7 U/L
MDA-MB-231 [12]
  Activity: 0.8%
[13]
  Activity: Non-Toxic
MCF7 [14]
  Activity: 52.8%
MDA-MB-231 [15]
  Activity: 14.7%
[16]
  Activity: 120.54 mg/dL
MCF7 [17]
  Activity: 5%
[18]
  Activity: Non-Toxic
MDA-MB-231 [19]
  Activity: 1.7%
MCF7 [20]
  Activity: 12.1%
[21]
  Activity: 22.34 U/L
MCF7 [22]
  Activity: 9.2%
[23]
  Activity: 2.52 mg/mL
[24]
  inhibition: 0.22%
[25]
  Activity: 198.57 U/L
[26]
  Activity: 106.09 mg/dL
[27]
  Activity: 9.84 million/mm3
MDA-MB-231 [28]
  IC50: 5.21 µM
[29]
  Activity: 11.11 10^3/mm3
MCF7 [30]
  Activity: 25.8%
MDA-MB-231 [31]
  Activity: 16.7%
[32]
  Activity: 0.57 g/dL
MCF7 [33]
  Activity: 11.4%
MCF7 [34]
  Activity: 13.4%
MDA-MB-231 [35]
  Activity: 80.2%
